From patent US12138256B2, “Treatment of cardiopulmonary disorders” (Bayer Aktiengesellschaft, priority 2021, dated 2024)
Read-outs that look alike come from different tables or passages of the source.

What was measured:
[1] = test system: allergen-induced late airway hyperresponsiveness and inflammation in sensitized mice; assay: Chronic asthma model: ovalbumin sensitized BALB/c mice, airway hyperresponsiveness and BAL (C-3.3); format: in vivo, mouse; conditions: for inhibition at 0.1 mg/kg: Mus musculus, dexamethasone 18 h and 1 h before each Ova challenge, comparative example 11 high dose of 100 μg/kg 2 h before
Procedure: The study was conducted to investigate whether inhalative treatment with comparative example 11 has a protective effect on the experimentally allergen-induced late airway hyperresponsiveness and inflammation in sensitized mice. Female BALB/c mice were sensitized and boosted with Ovalbumin (Ova) and aluminium hydroxide adjuvant (day 0. 14 and 21) with the exception of the negative control group receiving NaCl. On day 28 and 29. the animals were challenged with Ova aerosol. On day 30, a hyperresponsiveness test followed by bronchoalveolar lavage (BAL) was performed in all animals of all groups. The treatment groups D (10 μg) and E (100 μg) were treated with comparative example 11 inhalationally 2 h before each Ova challenge. Group A and B, the positive and negative control groups, were treated correspondingly with the vehicle. The Ova-sensitized positive control group A should show the full allergic reaction and, in contrast, the sham-sensitized negative control group B should show no allergic response. As a reference group, the animals of group C were treated inhalative with the corticosteroid dexamethasone but—due to its different mechanism of action—18 h and 1 h before each Ova challenge (on day 27, 28 and 29). On day 30, 24 h after Ova challenge in the late allergic phase, lung function—especially RL—was measured in the orotracheally intubated mice and a test on airway hyperresponsiveness was performed (inhalational methacholine provocation in doubling dose steps). […] These inhibitory effects show the successful therapeutic intervention.

[2] = test system: plasma proteins; assay: Protein binding via Transil assay, human plasma; format: in vitro ADME; conditions: plasma
Text: The distribution of a test substance between Transil® (phosphatidylcholine lipid bilayers immobilized on silica beads) and plasma is a characteristic feature of any pharmaceutical compound and is dependent on its extent of binding to plasma proteins. By comparing the distribution between Transil® and buffer with the distribution between Transil® and plasma of any species of interest, the unbound fraction in the plasma of the respective animal species can be calculated in vitro. The respective plasma and buffer concentrations were determined via a radioactivity analysis. A detailed description of the method and its validation was published by Schuhmacher et al. (2).

[3] = test system: acetylcholine-induced bronchospasm; assay: Bronchorelaxation in vivo: acetylcholine-induced bronchoconstriction in Brown Norway rats, RL and Cdyn (C-3.2); set-up: species or system rat; conditions: inhaled 60 minutes before provocation; tiotropium 1 μg/kg; comparative example 11 1, 10 and 100 μg/kg
Procedure: The bronchoconstriction model (see Hoymann H G. Lung function measurements in rodents in safety pharmacology studies. Front Pharmacol 2012; 3:156) used Male Brown Norway rats (Charles River, Sulzfeld, Germany; 10-12 weeks old) randomized to three treatment groups (comparative example 11, 1 μg/kg, 10 μg/kg, and 100 μg/kg; n=12-13), one positive control group (tiotropium 1 μg/kg; n=12), and one vehicle control group (n=17). Animals were treated with the inhaled test compounds 60 minutes before provocation. Comparative example 11, vehicle, or tiotropium were aerosolized using a micro feeding system and a dispersion nozzle operated with pressurized air. The aerosol concentration was determined by filter sampling with gravimetrical analysis and monitored continuously by a photometer. The lung-deposited doses were assessed from the inhalation dose (Raabe O G, Al-Bayati M A, Teague S V, Rasolt A. Regional Deposition of Inhaled Monodisperse Coarse and Fine Aerosol Particles in Small Laboratory Animals. The Annals of Occupational Hygiene 1988; 32:53-63.). […] After reaching a steady state in respiration, lung function of the spontaneously breathing animal was recorded as baseline values for ≥2 minutes; amongst other parameters, lung resistance (=RL) and dynamic compliance (=Cdyn) were used to assess bronchoconstriction. […]

## O=C(O)c1ccc(CCN(CCc2ccccc2OCc2ccc(-c3ccc(C(F)(F)F)cc3)cc2Cl)[C@H]2CCCc3nc(C(=O)O)ccc32)cc1 [comparative example 11, (5S)-5-{[2-(4-carboxyphenyl)ethyl][2-(2-{[3-chloro-4′-(trifluoromethyl)[biphenyl]-4-yl]methoxy}phenyl)ethyl]amino}-5,6,7,8-tetrahydroquinoline-2-carboxylic acid]
[1]; read-out: inhibition of the airway hyperresponsiveness (ED100)
  inhibition at 0.1 mg/kg: 38%
[1]; read-out: inhibition of the airway hyperresponsiveness (ED150)
  inhibition at 0.1 mg/kg: 32%
[1]; high dose group (100 μg)
  inhibition of the eosinophilic influx: 31%
[1]; low dose (10 μg)
  effect on airway hyperresponsiveness: no or only marginal effects
[1]; low dose group (10 μg)
  inhibition of the eosinophilic influx: 19%
[2]
  ratio of fraction unbound minipig/human: 4.55
[3]
  bronchodilatory efficacy (RL): dose-dependent significant (1, 10 and 100 μg/kg) bronchodilating effect
